Measured values as given in EP4793271A1, “NEUROPROTECTIVE AGENT” (National Center of Neurology and Psychiatry, priority 2023, dated 2025).

Key:
[1] = system: primary cultured cells of mouse fetus-derived dorsal root ganglia (DRGs); assay: Suppression of axonal degeneration after axotomy in DRG explant culture; assay type: cell-based; conditions: minimum concentration at which axonal degeneration was suppressed (DI 0.3 or less), 24 hours after axotomy; for minimal effective concentration: Mus musculus, read-out: Evaluation on protection against degeneration
Method in brief: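 Embryonic ICR mouse DRG explants were cultured 7–8 days in nicotinamide-free neuronal medium with NGF, then axotomized by removing the cell bodies. Compound (100 pM–10 µM final, 0.1% DMSO) was added within 30 min, and neurites were imaged 24 h later. The result is the lowest concentration giving degeneration index ≤0.3.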

[2] = biological target: T1, nicotinamide phosphoribosyl transferase (NAMPT) (Homo sapiens, UniProt P43490); assay: NAMPT activity measurement (NMN fluorescence detection); assay type: biochemical; conditions: NAMPT recombinant protein, 10 µM Nam; for IC50: read-out: Evaluation on NAMPT inhibitory
T1 construct: purchased Medical & Biological Laboratories Co., Ltd. (MBL)
T1 sequence (P43490 whole entry, species assumed): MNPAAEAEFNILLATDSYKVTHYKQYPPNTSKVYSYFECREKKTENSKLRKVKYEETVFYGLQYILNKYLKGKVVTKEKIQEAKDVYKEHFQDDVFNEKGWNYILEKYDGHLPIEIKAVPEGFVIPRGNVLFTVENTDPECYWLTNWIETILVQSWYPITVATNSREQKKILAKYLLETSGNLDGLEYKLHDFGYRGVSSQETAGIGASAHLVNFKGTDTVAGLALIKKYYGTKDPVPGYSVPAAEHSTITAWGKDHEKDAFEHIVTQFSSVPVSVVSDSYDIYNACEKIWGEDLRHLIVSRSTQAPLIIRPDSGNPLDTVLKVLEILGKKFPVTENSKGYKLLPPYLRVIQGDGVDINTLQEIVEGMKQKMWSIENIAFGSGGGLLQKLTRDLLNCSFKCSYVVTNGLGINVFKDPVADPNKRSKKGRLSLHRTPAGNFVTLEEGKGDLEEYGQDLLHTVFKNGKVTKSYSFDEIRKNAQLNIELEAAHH
Method in brief: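 Recombinant NAMPT reacted with 10 µM Nam, 0.5 µM PRPP, 2 µM ATP in Tris pH 7.4 buffer with MgCl2, DTT, BSA; product NMN quantified by fluorescence (ex 421/em 480 nm) after derivatization with 2-acetylbenzofuran. Compounds at 3 nM–10 µM; control-normalized signal used for IC50.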

hSARM1 = biological target: T2, hSARM1 (Homo sapiens, UniProt Q6SZW1); assay: Human SARM1 activity measurement in HEK293 cells transiently transfected with ΔN-hSARM1 (PC6 fluorescent probe); assay type: cell-based; set-up: expressed in transfected cells; host or cells: HEK293, pcDNA3 expression vector; conditions: inhibition rate; compound 30 µM; PC6 50 µM; HEK293 cells expressing ΔN-hSARM1; approximately 48 hours from transfection; read-out: Evaluation on hSARM1 inhibitory
T2 sequence (Q6SZW1 28-724): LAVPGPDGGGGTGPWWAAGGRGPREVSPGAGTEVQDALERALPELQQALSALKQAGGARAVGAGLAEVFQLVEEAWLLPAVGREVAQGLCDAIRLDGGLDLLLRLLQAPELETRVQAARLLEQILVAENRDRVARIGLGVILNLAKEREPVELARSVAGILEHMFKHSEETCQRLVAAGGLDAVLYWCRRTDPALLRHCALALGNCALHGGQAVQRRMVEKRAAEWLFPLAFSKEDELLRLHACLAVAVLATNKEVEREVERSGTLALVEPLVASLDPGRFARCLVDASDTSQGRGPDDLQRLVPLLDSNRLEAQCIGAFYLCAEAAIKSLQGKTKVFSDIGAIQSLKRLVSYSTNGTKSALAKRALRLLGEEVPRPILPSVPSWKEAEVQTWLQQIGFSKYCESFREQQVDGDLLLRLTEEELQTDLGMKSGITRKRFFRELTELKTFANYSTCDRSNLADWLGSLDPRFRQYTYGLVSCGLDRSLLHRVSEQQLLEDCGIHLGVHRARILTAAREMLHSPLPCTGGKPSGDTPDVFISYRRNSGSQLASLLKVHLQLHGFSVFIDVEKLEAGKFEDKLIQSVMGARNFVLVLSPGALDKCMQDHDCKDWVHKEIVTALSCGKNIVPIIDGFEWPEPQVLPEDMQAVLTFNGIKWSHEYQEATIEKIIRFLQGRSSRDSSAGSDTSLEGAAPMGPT
Method in brief: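 HEK293 cells in nicotinamide-free DMEM with 5 μM nicotinamide, transiently transfected with mitochondrial-targeting-deleted ΔN-hSARM1; PC6 base-exchange fluorescent probe (50 μM) plus compound (30 μM) added ~8 h post-transfection. Fluorescence (ex 405/em 525 nm) read ~48 h from transfection; inhibition % versus transfected DMSO control, untransfected background subtracted.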

Row | SMILES | minimal effective concentration [1] | Evaluation on NAMPT inhibitory [2] | inhibition at 30 µM (hSARM1) | IC50 [2] | Evaluation on protection against degeneration [1]
1 | O=C(/C=C/c1cccnc1)NCCOCCNC(=O)/C=C/c1cccnc1 [compound 37] | 0.01 to 0.1 µM | ○ | > 75% | – | –
2 | O=C(/C=C/c1cccnc1)NCCCNC(=O)/C=C/c1cccnc1 [compound 39] | ≤ 0.01 µM | ○ | > 75% | – | –
3 | O=C(CNC(=O)c1cccnc1)NCCNC(=O)CNC(=O)c1cccnc1 [compound 40] | 0.1 to 1 µM | ○ | > 10% | – | –
4 | O=C(CNC(=O)c1cccnc1)NCCCCCCNC(=O)CNC(=O)c1cccnc1 [compound 41] | ≤ 0.01 µM | ○ | > 75% | – | –
5 | C/C(=C\C(=O)NCCOCCNC(=O)/C=C(\C)c1cccnc1)c1cccnc1 [compound 43] | ≤ 0.01 µM | – | > 75% | ≥ 0.1 µM | –
6 | O=C(NCCCCCCNC(=O)c1cncc(O)c1)c1cccnc1 [compound 57] | 0.01 to 0.1 µM | – | > 75% | ≥ 0.1 µM | –
7 | O=C(/C=C/c1cccnc1)Nc1cccc(NC(=O)/C=C/c2cccnc2)n1 [compound 59] | – | ○ | > 25% | – | A (A ≤ 0.01 µM)
8 | O=C(/C=C/c1cccnc1)NCc1cccc(NC(=O)/C=C/c2cccnc2)c1 [compound 61] | ≤ 0.01 µM | – | > 75% | ≥ 0.1 µM | –
9 | O=C(NCCCNS(=O)(=O)c1ccccc1[N+](=O)[O-])c1cccnc1 [compound 63] | 0.1 to 1 µM | ○ | > 10% | – | –
10 | O=C(/C=C/c1cccnc1)Nc1ccc(CNC(=O)c2ccccc2)cc1 [compound 64] | ≤ 0.01 µM | – | > 75% | ≥ 0.1 µM | –
11 | O=C(CCc1ccccc1)NCc1ccc(CNC(=O)c2cccnc2)cc1 [compound 65] | ≤ 0.01 µM | ○ | > 75% | – | –
12 | C#CCOc1cncc(C(=O)Nc2ccc(CNC(=O)c3cccnc3)cc2)c1 [compound 67] | ≤ 0.01 µM | – | > 75% | ≥ 0.1 µM | –
13 | CC(C)(C)OC(=O)NCCCOCCOCCCNC(=O)c1cccnc1 [compound 70] | ≤ 0.01 µM | ○ | > 50% | – | –
14 | CC(C)(C)OC(=O)NCCOCCOCCNC(=O)c1cccnc1 [compound 71] | – | ○ | > 50% | – | A (A ≤ 0.01 µM)
15 | CC(C)C(=O)Nc1ccc(CNC(=O)c2cccnc2)cn1 [compound 72] | 0.01 to 0.1 µM | ○ | > 50% | – | –
16 | N#Cc1ccc(C(=O)Nc2ccc(CNC(=O)c3cccnc3)cn2)cc1 [compound 73] | ≤ 0.01 µM | ○ | > 50% | – | –
17 | O=C(/C=C/c1ccccc1)Nc1ccc(CNC(=O)c2cccnc2)cn1 [compound 74] | 0.01 to 0.1 µM | ○ | > 75% | – | –
18 | O=C(/C=C/c1cccnc1)Nc1ccc(CNC(=O)c2cccnc2)cn1 [compound 75] | ≤ 0.01 µM | – | > 75% | ≥ 0.1 µM | –
19 | Cc1ccc(C(=O)Nc2ccc(CNC(=O)/C=C/c3cccnc3)cn2)cc1 [compound 78] | ≤ 0.01 µM | ○ | > 75% | – | –
20 | C=Cc1ccc(C(=O)Nc2ccc(CNC(=O)c3cccnc3)cn2)cc1 [compound 80] | ≤ 0.01 µM | – | > 75% | ≥ 0.1 µM | –
21 | O=C(NCc1ccc(NC(=O)c2ccccc2C(F)(F)F)nc1)c1cccnc1 [compound 81] | 0.01 to 0.1 µM | ○ | > 50% | – | –
22 | O=C(NCc1ccc(NC(=O)c2cccc(C(F)(F)F)c2)nc1)c1cccnc1 [compound 82] | ≤ 0.01 µM | ○ | > 75% | – | –
